This note sets out measurements from PMC12033163, “Tumor-specific biochemical nanoconversion of self-assembled peptide-conjugated paclitaxel-docetaxel-based nanoparticles” (Nano Convergence, 2025).

A short description of one data set: Solubility assessment. The conditions noted are these: for appearance of solution in 3% DMSO: 0.3 mg/mL in water (DW) with 3% DMSO; for appearance of solution in 3% DMSO / appearance of solution in 10% DMSO: visual images; for appearance of solution in 10% DMSO: 0.3 mg/mL in water with 10% DMSO. On the procedure: The images aimed to observe how well these compounds dissolved in the solution. Additionally, an experiment was carried out to precisely determine the aqueous solubility values of (Ac)FRRF-DTX nanoparticles. […] […] Moreover, complementary experiments were performed to obtain accurate quantitative solubility values for (Ac)FRRF-DTX NPs.

The target in data set [1] is T1, Cathepsin B from bovine spleen (Bos taurus, UniProt P07688).
T1 construct: Cathepsin B from bovine spleen; purchased Sigma-Aldrich; host or cells: bovine spleen (tissue-derived enzyme)
Nature of the data set: Cathepsin B cleavage assay (RP-HPLC, LC-MS). It is filed as in vitro ADME. To be noted: 50 µM, 25 mM MES buffer, 37℃, RP-HPLC 245 nm. The text has this:
Antibiotic antimycotic solution (100X), Bio TrackerTM 488 Green Microtubule Cytoskeleton Dye, Cathepsin B from bovine spleen, Dimethyl sulfoxide (DMSO), Dulbecco’s modified Eagle’s medium (DMEM), 1-ethyl-3-(3-dimethylaminopropyl) carbodiimide (EDCI), dichloromethane (DCM), ether, phosphate-buffered saline (PBS), rhodamine B isothiocyanate (RITC), 2-(4-amidi-nophenyl)-6-indolecarbamidine dihydrochloride (DAPI), Tetramethylsilane (TMS), Dimethyl sulfoxide-d6 (DMSO-d6) were purchased from Sigma-Aldrich (St. Louis, MO, USA). Paraformaldehyde solution 4% in PBS (PFA), PierceTM BCA Protein Assay Kit were obtained from Thermo Fisher Scientific (Waltham, MA, USA). EZ-Cytox kit was purchased from DoGenBio (Seoul, Republic of Korea). Fetal bovine serum (FBS), 0.5% Trypsin-EDTA (10X) were obtained from Gibico (Waltham, MA, USA). Neutral buffered formalin (10%) was purchased from HuBenTech (Damyang, Republic of Korea).
The cathepsin B-specific cleavage of (Ac)FRRF-DTX was analyzed using reverse-phase high-performance liquid chromatography (RP-HPLC), and the molecular weight of PTXm was determined by liquid chromatography-mass spectrometry (LC-MS). […] The cleavage profile of (Ac)FRRF-DTX NPs was analyzed at 245 nm using reversed-phase high-performance liquid chromatography (RP-HPLC) under solvent gradient conditions (from 90:10 H2O/acetonitrile to 10:90 H2O/acetonitrile over 40 min). […]

In the next data set the test system is Hep G2 cells. The data set can be described thus: In vitro cytotoxicity assay (EZ-Cytox). It is filed as cell-based. To be noted: Hep G2, 48 h; for cell viability at 500 µM in 3% DMSO solution / cell viability at 500 µM: relative to untreated group; for cell viability at 500 µM in 3% DMSO solution: n = 6; for cell viability at 500 µM: n = 5-6, mean ± S.D. On the procedure: The cytotoxicity of (Ac)FRRF, de-Boc-DTX, (Ac)FRRF-DTX NPs, PTXm and PTX were evaluated using the EZ-Cytox assay on Hep G2 cell. Hep G2 was cultured in a 96-well plate at concentrations of 5.0 × 10^3 cells/well and 1.0 × 10^4 cells/well, respectively, under conditions of 37℃ and 5% CO2 for 1 h. Subsequently, cells were cultured for 48 h with concentrations ranging from 0.1 to 500 µM of each drug. Cell viability (n = 5 − 6) was measured at 450 and 600 nm absorbance using the EZ-Cytox cell viability assay kit (Daeil Lab Service, Republic of Korea) and a microplate reader (SPECTROstar Nano spectrophotometer, BMG Labtech, Germany). Cell viability was calculated by comparing the absorbance values of the measured samples with those of the control group. Additionally, to more accurately confirm the cytotoxicity of DTX and PTX with low solubility in aqueous media for Hep G2 cell, both of drug were dissolved in a 3% DMSO solution and cultured for 48 h at concentrations ranging from 0.1 to 500 µM. Cell viability was determined using the same method.

Data set [2] is described as follows: Morphology / nanoparticle formation by TEM and SEM. The class given is physicochemical.
For data set [3] the following is noted: mouse, in vivo.
The next data set has as its system Hep G2 tumors. Nature of the data set: In vivo antitumor test (Hep G2 xenograft). On the set-up: species or system BALB/c nude mice. The conditions noted are these: for average tumor weight after 17 days / tumor size after 17 days: i.v. at 3 day intervals, PTX, de-Boc-DTX 5 mg/kg, NPs 10 mg/kg; for average tumor weight after 17 days: control 595.28 ± 282.98; for tumor size after 17 days: control 2161.12 ± 946.71; for TUNEL staining fluorescence intensity of tumor tissue: tumors after 17 days, ImageJ, relative to control group, n = 3. The method, then: All animal experiments were conducted in accordance with the standard regulations of the Konkuk University Animal Experimentation Ethics Committee (Ref: no. KU220748-1). Hep G2 cells at a concentration of 1.0 × 10^7 cells/100 µL were subcutaneously inoculated into the dorsal region at 6-week-old male BALB/c nude mice (Orient Bio, Seongnam, Republic of Korea). After […], when the tumor volume reached approximately 50 − 100 mm^3 (calculated as the maximum diameter × minimum diameter^2 × 0.52), the mice were divided into four groups. Mice with tumors were intravenously administered saline, de-Boc-DTX (5 mg/kg), PTX (5 mg/kg), or (Ac)FRRF-DTX NPs (10 mg/kg; based on 5 mg/kg of de-Boc-DTX) at 3 days intervals for a total of 17 days. The body weight and tumor volume of the treated mice were measured every other day using a digital caliper (ASIMETO, Mooresville, NC, USA). After 17 days of treatment, tumors were fixed with diluted 10% neutral pH formalin (HuBen Tech, Republic of Korea). Tumor tissues were stained with TUNEL, Ki-67, and H&E. Sections of tumor tissues stained with Ki-67 and H&E were observed using the OS-33DPM multimedia video microscope (OSUN HITECH, Republic of Korea). Additionally, tumor tissues stained with TUNEL were sliced for histological observation using an ECLIPSE Ti2 inverted microscope (Nikon, Japan), and FITC fluorescence intensity was quantified using ImageJ (U.S. National Institutes of Health) (n = 3).

The subject of data set [4] is microtubules in Hep G2 cells. Nature of the data set: In vitro microtubule staining (BioTracker 488 Green Microtubule Cytoskeleton Dye). It is filed as cell-based. To be noted: Hep G2, 100 µM, 24 h, versus well-organized control. On the procedure:
To assess the cell death induced by PTX, PTXm, and (Ac)FRRF-DTX NPs in Hep G2 cells, an evaluation was conducted using the nucleic green reagent, and the results were visualized through imaging. Hep G2 cells cultured in high-glucose DMEM medium, maintain in a sample chamber with appropriate humidity, and kept at 37℃ with 5% CO2. The cells were cultured in 35 mm fluorescent cell culture dishes (SPL Life Science, Republic of Korea) at a concentration of 4 × 10^4 for 3 h. Subsequently, DTX, PTX, and (Ac)FRRF-DTX NPs were all treated at a concentration of 100 µM (in DMSO 2%) for 24 h. After sample treatment, cells were washed five times with DPBS solution, and in a light-protected environment, the medium was replaced with a mixture of microtubule reagent (Bio Tracker™ 488 Green Microtubule Cytoskeleton Dye, Sigma-Aldrich, MO, USA) in fresh medium at RT for 30 min. Following this, the medium was replaced with new DMEM containing 10% FBS, and images were captured using ECLIPSE Ti2 Series (Nikon, Japan) with a FITC filter and quantified using ImageJ (U.S. National Institutes of Health).

Data set [5] in a line: In vivo blood toxicity assessment (hematology). To be noted: normal mice, i.v.; PTX 1.5 mg/kg, NPs 3 mg/kg; blood after 7 days, n = 5. The method, then:
Hematological analysis of red blood cell (RBC) and white blood cell (WBC) parameters in mice treated with (Ac)FRRF-DTX was performed through clinical pathological examinations. Normal saline (control group), de-Boc-DTX (1.5 mg/kg), PTX (1.5 mg/kg), and (Ac)FRRF-DTX NPs (3 mg/kg) were dissolved in 200 µL of normal saline and administered daily via tail vein. After 7 days, blood was drawn from the mice’s heart and collected in tubes containing EDTA to prevent coagulation. Subsequently, whole blood samples were stored for analysis. Level of RBC-related parameters (RBC, HGB, HCT, MCV, MHC, MCHC) and WBC-related parameters (WBC, PLT, NEU, LYM, MONO, EOS) were measured using a hematology analyzer (Sysmex XN series, Sysmex, Japan) (n = 5).

SMILES strings stand for the structures. Peptide text beside a SMILES is read from it.

In turn, `CC(=O)N[C@@H](Cc1ccccc1)C(=O)N[C@@H](CCCNC(=N)N)C(=O)N[C@@H](CCCNC(=N)N)C(=O)N[C@@H](Cc1ccccc1)C(=O)N[C@@H](c1ccccc1)[C@@H](O)C(=O)O[C@H]1C[C@@]2(O)[C@@H](OC(=O)c3ccccc3)[C@@H]3[C@]4(OC(C)=O)CO[C@@H]4C[C@H](O)[C@@]3(C)C(=O)[C@H](O)C(=C1C)C2(C)C` [(Ac)FRRF-DTX, Acetylated Phenylalanine-Arginine-Arginine-Phenylalanine Docetaxel] registered a solubility in water in “Solubility assessment” (water without DMSO) of 1.3 mg/20 µL. The “change of (Ac)FRRF-DTX in the absence of cathepsin B” value in data set [1] (0-72 h, no cathepsin B) is listed as “remained unchanged”. Besides, in data set [1] (cathepsin B 50 µg/mL, 48 h), the “nanoconversion of (Ac)FRRF-DTX to PTXm at 48 h” value is listed as “complete nanoconversion”.

Usually cell viability stands for the share of living cells, or the viability signal relative to a control. Read a high cell viability as better survival. For the compound `CC(=O)O[C@@]12CO[C@@H]1C[C@H](O)[C@@]1(C)C(=O)[C@H](O)C3=C(C)[C@@H](OC(=O)[C@H](O)[C@@H](NC(=O)OC(C)(C)C)c4ccccc4)C[C@@](O)([C@@H](OC(=O)c4ccccc4)[C@H]21)C3(C)C` [DTX, Docetaxel], the “cell viability at 500 µM in 3% DMSO solution” value in the data set on Hep G2 cells is 24.9 ± 4.6%. Moreover, the “cell viability at 500 µM” value with Hep G2 cells (without DMSO) is recorded as 57.9 ± 8.9%. Also, in “Solubility assessment”, the “appearance of solution in 3% DMSO” value is reported as “opaque or precipitated” and the “appearance of solution in 10% DMSO” value is “clear”.

Regarding `CC(=O)N[C@@H](Cc1ccccc1)C(=O)N[C@@H](CCCNC(=N)N)C(=O)N[C@@H](CCCNC(=N)N)C(=O)N[C@@H](Cc1ccccc1)C(=O)O` [(Ac)FRRF, acetylated Phe-Arg-Arg-Phe peptide] (Ac-FRRF-OH), the “cell viability at 500 µM” value in the data set with Hep G2 cells (without DMSO) is 84.1 ± 6.6%. Moreover, the “morphology / nanoparticle formation” value in data set [2] is “absence of nanoparticle formation”.

As to `CC(=O)O[C@@]12CO[C@@H]1C[C@H](O)[C@@]1(C)C(=O)[C@H](O)C3=C(C)[C@@H](OC(=O)[C@H](O)[C@@H](N)c4ccccc4)C[C@@](O)([C@@H](OC(=O)c4ccccc4)[C@H]21)C3(C)C` [de-Boc-DTX], in the data set with Hep G2 cells (without DMSO), the “cell viability at 500 µM” value was 75.3 ± 5.4%. Also, in data set [3], the “histological toxicity in major organs (heart, liver, spleen, lungs, kidney)” value was “no significant toxicity”. Besides, the “morphology / nanoparticle formation” value in data set [2] is listed as “absence of nanoparticle formation”. In addition, in the data set on Hep G2 tumors (n = 5-7), the “average tumor weight after 17 days” value is recorded as 265.94 ± 298.69 mg and the “tumor size after 17 days” value came out at 1262.19 ± 1209.27 mm^3. Also, the “TUNEL staining fluorescence intensity of tumor tissue” value with Hep G2 tumors is given as 196.50 ± 4.25%.

In the case of `CC(=O)O[C@H]1C(=O)[C@@]2(C)[C@H]([C@H](OC(=O)c3ccccc3)[C@]3(O)C[C@H](OC(=O)[C@H](O)[C@@H](NC(=O)c4ccccc4)c4ccccc4)C(C)=C1C3(C)C)[C@]1(OC(C)=O)CO[C@@H]1C[C@@H]2O` [PTX, paclitaxel], the “cell viability at 500 µM in 3% DMSO solution” value in the data set with Hep G2 cells came to 27.4 ± 4.5%. Moreover, the “cell viability at 500 µM” value with Hep G2 cells (without DMSO) worked out at 55.5 ± 4.9%. In data set [3], the “histological toxicity in major organs (heart, liver, spleen, lungs, kidney)” value is listed as “no significant toxicity”. In addition, in the data set “Solubility assessment”, the “appearance of solution in 3% DMSO” value was “opaque or precipitated” and the “appearance of solution in 10% DMSO” value is given as “clear”. The “appearance of microtubule structures” value in data set [4] is on record as “indistinct”. Besides, in the data set with Hep G2 tumors (17 days treatment, n = 5-7), the body weight change entry is given as “no significant changes in body weight”. Also, in the data set with Hep G2 tumors (n = 5-7), the “average tumor weight after 17 days” value amounted to 293.97 ± 164.22 mg and the “tumor size after 17 days” value was 1029.79 ± 752.19 mm^3. For the same compound, the “TUNEL staining fluorescence intensity of tumor tissue” value with Hep G2 tumors worked out at 183.71 ± 2.32%. In data set [5], the “white blood cell parameters (NEU, LYM, EOS concentrations)” value was “alterations in NEU, LYM and EOS concentrations”.

For orientation: IC50 means the concentration that gives 50% inhibition. Low values mean greater potency, high ones weaker potency. As to `CC(=O)O[C@@]12CO[C@@H]1C[C@H](O)[C@@]1(C)C(=O)[C@H](O)C3=C(C)[C@@H](OC(=O)[C@H](O)[C@@H](NC(=O)[C@@H](N)Cc4ccccc4)c4ccccc4)C[C@@](O)([C@@H](OC(=O)c4ccccc4)[C@H]21)C3(C)C` [PTXm], in the data set with Hep G2 cells (without DMSO), the “cell viability at 500 µM” value is given as 40.9 ± 10.9%. Besides, the 50% inhibitory concentration (IC50) in the data set with Hep G2 cells (tested 0.1-500 µM, without DMSO) stood at 214 µM. Moreover, the “appearance of microtubule structures” value in data set [4] was “indistinct”.
